One test has as its target T1, human GLP1 receptor (Homo sapiens, UniProt P43220).
T1 construct: expressed in transfected cells; host or cells: HEK cells, BacMam virus transduction
Briefly: cAMP accumulation assay, functional agonism of human GLP1 receptor. Type of test: cell-based. The conditions noted are these: HEK cells infected with human GLP1 receptor BacMam virus, HTRF cAMP; for Emax: HEK293, read-out: Human GLP-1R agonist cAMP Emax; for EC50: read-out: Human GLP-1R agonist cAMP pEC50 (converted). The protocol: (§1) CAMP production upon agonist stimulation of human GLP2 or GLP1 receptor was assessed utilizing HiRange cAMP kit (Cisbio). In brief, HEK cells were infected with either human GLP2 or GLP1 receptor BacMam virus for 24 hours and frozen for later use in the assay. […] Cells were prepared in the assay buffer (HBSS (Lonza) supplemented with 0.5 mM IBMX (Tocris)). After 45 min incubation at 37° C., the reaction was stopped by addition of the HTRF detection reagents in the lysis buffer provided in the kit.
In general terms: Cyclic AMP is a second messenger, typically raised through Gs and lowered through Gi signalling.

For another test, the target named is T2, human GLP2 receptor (Homo sapiens, UniProt O95838).
T2 construct: expressed in transfected cells; host or cells: HEK cells, BacMam virus transduction
T2 sequence (O95838 1-553): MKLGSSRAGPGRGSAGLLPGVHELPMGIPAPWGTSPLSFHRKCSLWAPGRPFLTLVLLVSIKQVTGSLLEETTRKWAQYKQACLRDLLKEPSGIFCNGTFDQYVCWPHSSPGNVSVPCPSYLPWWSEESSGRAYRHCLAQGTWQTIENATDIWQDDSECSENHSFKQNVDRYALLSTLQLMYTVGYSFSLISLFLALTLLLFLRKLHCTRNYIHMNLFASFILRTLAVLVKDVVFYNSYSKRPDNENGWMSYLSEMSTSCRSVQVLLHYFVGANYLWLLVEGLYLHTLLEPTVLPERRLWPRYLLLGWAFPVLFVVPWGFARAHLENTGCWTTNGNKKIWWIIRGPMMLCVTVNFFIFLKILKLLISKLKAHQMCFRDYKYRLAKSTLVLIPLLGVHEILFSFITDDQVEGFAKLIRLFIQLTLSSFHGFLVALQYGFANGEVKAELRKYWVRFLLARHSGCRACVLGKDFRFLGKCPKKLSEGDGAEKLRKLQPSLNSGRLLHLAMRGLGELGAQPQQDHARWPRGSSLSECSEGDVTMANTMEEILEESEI
Briefly: cAMP accumulation assay, functional agonism of human GLP2 receptor. The conditions noted are these: HEK cells infected with human GLP2 receptor BacMam virus, HTRF cAMP; for Emax: HEK293, read-out: Human GLP-2R agonist cAMP Emax; for EC50: read-out: Human GLP-2R agonist cAMP pEC50 (converted). The test is classed as cell-based. The protocol:
as §1

Usually Emax stands for the greatest response seen or fitted, relative to the assay's reference.

SMILES strings stand for the structures. Positions of bridges follow the written chain, without caps; N, C: chain ends. Non-standard residues stand in square brackets, D forms with d. Residues, ends and D or L forms follow the SMILES beside them. *: point of attachment. Malonyl(2,2-Me2,histaminyl) = CC(C)(C(=O)NCCc1cnc[nH]1)C(=O)*; Ala(1H-tetrazol-5-yl) = N[C@@H](Cc1nnn[nH]1)C(=O)O; αMePhe(2-F) = C[C@](N)(Cc1ccccc1F)C(=O)O; αMeL = CC(C)C[C@](C)(N)C(=O)O; Nle = CCCC[C@H](N)C(=O)O; Aib = CC(C)(N)C(=O)O

T1 sequence (P43220 24-463): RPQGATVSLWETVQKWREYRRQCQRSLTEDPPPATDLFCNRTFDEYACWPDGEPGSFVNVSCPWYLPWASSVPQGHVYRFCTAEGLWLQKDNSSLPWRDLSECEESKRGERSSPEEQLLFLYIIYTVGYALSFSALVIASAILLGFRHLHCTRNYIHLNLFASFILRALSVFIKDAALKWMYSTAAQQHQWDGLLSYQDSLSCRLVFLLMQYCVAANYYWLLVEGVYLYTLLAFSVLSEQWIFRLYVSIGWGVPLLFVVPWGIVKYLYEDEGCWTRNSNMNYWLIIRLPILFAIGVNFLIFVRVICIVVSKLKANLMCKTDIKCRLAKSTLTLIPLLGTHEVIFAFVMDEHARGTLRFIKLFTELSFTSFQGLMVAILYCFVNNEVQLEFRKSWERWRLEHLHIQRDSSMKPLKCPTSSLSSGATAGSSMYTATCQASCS

Turning to `CCCC[C@@H]1NC(=O)[C@H](CCC(=O)O)NC(=O)[C@@H](NC(=O)[C@H](CO)NC(=O)[C@](C)(Cc2ccccc2F)NC(=O)[C@H](CO)NC(=O)[C@@H](C)NC(=O)[C@H](CCC(N)=O)NC(=O)C(C)(C)C(=O)NCCc2c[nH]cn2)CCCCNC(=O)C[C@@H](C(=O)N[C@H](C(=O)N[C@@H](CC(C)C)C(=O)N[C@@H](CC(=O)O)C(=O)N[C@H]2CCC(=O)NCCCC[C@@H](C(=O)N[C@@H](CC(=O)O)C(=O)N[C@@H](Cc3ccccc3)C(=O)N[C@H](C(=O)N[C@H]3CCCCNC(=O)C[C@@H](C(=O)N[C@H]4CCC(=O)NCCCC[C@@H](C(N)=O)NC(=O)[C@H]([C@@H](C)O)NC(=O)[C@H]([C@@H](C)CC)NC(=O)[C@H](CCCCN)NC4=O)NC(=O)[C@H]([C@@H](C)CC)NC(=O)[C@H](CC(C)C)NC(=O)[C@H](Cc4c[nH]c5ccccc45)NC3=O)[C@@H](C)CC)NC(=O)[C@H](C)NC(=O)[C@H](C)NC(=O)[C@H](CCCCN)NC2=O)[C@@H](C)CC)NC(=O)[C@@H](Cc2ccccc2)NC1=O` [Example 54] ({Malonyl(2,2-Me2,histaminyl)}-Q[dA]S[αMePhe(2-F)]SKE[Nle][dF]DILDEKAAKDFIKWLIDEKITK-NH2; lactam 6-10, 14-18, 22-26, 27-31 (inferred); C-terminus assumed), on human GLP1 receptor, the maximal response (Emax) turned out to be 88.8% and the EC50 was 0.631 nM. Moreover, at human GLP2 receptor, the maximal effect (Emax) turned out to be 101% and the EC50 was 0.0316 nM.
Consider `CCCC[C@H](NC(=O)[C@H](CCC(=O)O)NC(=O)[C@@H]1CC(=O)NCCCC[C@H](NC(=O)[C@H](CCC(N)=O)NC(=O)C(C)(C)NC(=O)[C@@H](N)Cc2c[nH]cn2)C(=O)N[C@@H](CO)C(=O)N[C@@H](Cc2ccccc2)C(=O)N[C@@H](CO)C(=O)N1)C(=O)N[C@H](Cc1ccccc1)C(=O)N[C@H](C(=O)N[C@@](C)(CC(C)C)C(=O)N[C@@H](CC(C)C)C(=O)N[C@@H](CC(=O)O)C(=O)N[C@H]1CCC(=O)NCCCC[C@@H](C(=O)N[C@@H](CC(=O)O)C(=O)N[C@@H](Cc2ccccc2)C(=O)N[C@H](C(=O)N[C@H]2CCC(=O)NCCCC[C@@H](C(=O)N[C@H]3CCC(=O)NCCCC[C@@H](C(N)=O)NC(=O)[C@H]([C@@H](C)O)NC(=O)[C@H]([C@@H](C)CC)NC(=O)[C@H](CCCCN)NC3=O)NC(=O)[C@H]([C@@H](C)CC)NC(=O)[C@H](CC(C)C)NC(=O)[C@H](Cc3c[nH]c4ccccc34)NC2=O)[C@@H](C)CC)NC(=O)[C@H](C)NC(=O)[C@H](C)NC(=O)[C@H](CCCCN)NC1=O)[C@@H](C)O` [Example 63] (H-H[Aib]QKSFSDE[Nle][dF]T[αMeL]LDEKAAKDFIEWLIKEKITK-NH2; lactam 4-8, 16-20, 24-28, 29-33 (inferred); C-terminus assumed), for which, on human GLP1 receptor, the Emax was 96.9% and the EC50 is 1 nM. Besides, at human GLP2 receptor, the Emax is 99.7% and the EC50 was 0.1 nM.
Take `CCCC[C@H](NC(=O)[C@H](CCC(=O)O)NC(=O)[C@@H]1CC(=O)NCCCC[C@H](NC(=O)[C@H](CC(=O)O)NC(=O)C(C)(C)C(=O)NCCc2c[nH]cn2)C(=O)N[C@@H](CO)C(=O)N[C@@H](Cc2ccccc2)C(=O)N[C@@H](CO)C(=O)N1)C(=O)N[C@H](Cc1ccccc1)C(=O)N[C@H](C(=O)N[C@@](C)(CC(C)C)C(=O)N[C@@H](CC(C)C)C(=O)N[C@@H](CC(=O)O)C(=O)N[C@H]1CCC(=O)NCCCC[C@@H](C(=O)N[C@@H](CC(=O)O)C(=O)N[C@@H](Cc2ccccc2)C(=O)N[C@H](C(=O)N[C@H]2CCC(=O)NCCCC[C@@H](C(=O)N[C@H]3CCC(=O)NCCCC[C@@H](C(N)=O)NC(=O)[C@H]([C@@H](C)O)NC(=O)[C@H]([C@@H](C)CC)NC(=O)[C@H](CCCCN)NC3=O)NC(=O)[C@H]([C@@H](C)CC)NC(=O)[C@H](CC(C)C)NC(=O)[C@H](Cc3c[nH]c4ccccc34)NC2=O)[C@@H](C)CC)NC(=O)[C@H](C)NC(=O)[C@H](C)NC(=O)[C@H](CCCCN)NC1=O)[C@@H](C)O` [Example 68] ({Malonyl(2,2-Me2,histaminyl)}-DKSFSDE[Nle][dF]T[αMeL]LDEKAAKDFIEWLIKEKITK-NH2; lactam 2-6, 14-18, 22-26, 27-31 (inferred); C-terminus assumed): on human GLP1 receptor, the maximal effect (Emax) came out at 94% and the EC50 is 0.316 nM. For the same compound, at human GLP2 receptor, the Emax stood at 103% and the EC50 is 0.0794 nM.
As to `CCCC[C@H](NC(=O)[C@H](CCC(=O)O)NC(=O)[C@@H]1CC(=O)NCCCC[C@H](NC(=O)[C@H](CCC(N)=O)NC(=O)C(C)(C)C(=O)NCCc2c[nH]cn2)C(=O)N[C@@H](CO)C(=O)N[C@@H](Cc2ccccc2)C(=O)N[C@@H](CO)C(=O)N1)C(=O)N[C@H](Cc1ccccc1)C(=O)N[C@H](C(=O)N[C@@](C)(CC(C)C)C(=O)N[C@@H](CC(C)C)C(=O)N[C@@H](CC(=O)O)C(=O)N[C@H]1CCC(=O)NCCCC[C@@H](C(=O)N[C@@H](CC(=O)O)C(=O)N[C@@H](Cc2ccccc2)C(=O)N[C@H](C(=O)N[C@H]2CCC(=O)NCCCC[C@@H](C(=O)N[C@H]3CCC(=O)NCCCC[C@@H](C(N)=O)NC(=O)[C@H]([C@@H](C)O)NC(=O)[C@H]([C@@H](C)CC)NC(=O)[C@H](CCCCN)NC3=O)NC(=O)[C@H]([C@@H](C)CC)NC(=O)[C@H](CC(C)C)NC(=O)[C@H](Cc3c[nH]c4ccccc34)NC2=O)[C@@H](C)CC)NC(=O)[C@H](C)NC(=O)[C@H](C)NC(=O)[C@H](CCCCN)NC1=O)[C@@H](C)O` [Example 69] ({Malonyl(2,2-Me2,histaminyl)}-QKSFSDE[Nle][dF]T[αMeL]LDEKAAKDFIEWLIKEKITK-NH2; lactam 2-6, 14-18, 22-26, 27-31 (inferred); C-terminus assumed), the Emax on human GLP1 receptor turned out to be 83.7%; on human GLP2 receptor, 95%. Further, the EC50 at human GLP1 receptor was 6.31 nM; at human GLP2 receptor, 0.501 nM.
On the same counts, the results for `CCCC[C@@H]1NC(=O)[C@H](CCC(=O)O)NC(=O)[C@H](CC(=O)O)NC(=O)[C@@H](NC(=O)[C@H](Cc2ccccc2)NC(=O)[C@H](CO)NC(=O)CNC(=O)[C@H](Cc2nn[nH]n2)NC(=O)C(C)(C)C(=O)NCCc2c[nH]cn2)CCC(=O)NCCCC[C@@H](C(=O)N[C@H]2CCC(=O)NCCCC[C@@H](C(=O)N[C@H]3CCC(=O)NCCCC[C@@H](C(=O)N[C@@H](CC(=O)O)C(=O)N[C@@H](Cc4ccccc4)C(=O)N[C@H](C(=O)N[C@H]4CCC(=O)NCCCC[C@@H](C(=O)N[C@H]5CCCCNC(=O)CC[C@@H](C(N)=O)NC(=O)[C@H]([C@@H](C)O)NC(=O)[C@H]([C@@H](C)CC)NC(=O)[C@H](CCCCN)NC5=O)NC(=O)[C@H]([C@@H](C)CC)NC(=O)[C@H](CC(C)C)NC(=O)[C@H](Cc5c[nH]c6ccccc56)NC4=O)[C@@H](C)CC)NC(=O)[C@H](C)NC(=O)[C@H](C)NC3=O)NC(=O)[C@H](CC(=O)O)NC(=O)[C@H](CC(C)C)NC(=O)[C@H]([C@@H](C)CC)NC2=O)NC1=O` [Example 80] are 64.1%, 99.9%, 3.98 nM and 0.2 nM.
`CCCC[C@@H]1NC(=O)[C@H](CCC(=O)O)NC(=O)[C@H](CC(=O)O)NC(=O)[C@@H](NC(=O)[C@H](Cc2ccccc2)NC(=O)[C@H](CO)NC(=O)CNC(=O)[C@H](Cc2nn[nH]n2)NC(=O)C(C)(C)C(=O)NCCc2c[nH]cn2)CCC(=O)NCCCC[C@@H](C(=O)N[C@H]2CCC(=O)NCCCC[C@@H](C(=O)N[C@H]3CCCCNC(=O)C[C@@H](C(=O)N[C@@H](Cc4ccccc4)C(=O)N[C@H](C(=O)N[C@H]4CCC(=O)NCCCC[C@@H](C(=O)N[C@H]5CCCCNC(=O)CC[C@@H](C(N)=O)NC(=O)[C@H]([C@@H](C)O)NC(=O)[C@H]([C@@H](C)CC)NC(=O)[C@H](CCCCN)NC5=O)NC(=O)[C@H]([C@@H](C)CC)NC(=O)[C@H](CC(C)C)NC(=O)[C@H](Cc5c[nH]c6ccccc56)NC4=O)[C@@H](C)CC)NC(=O)[C@H](CCCCN)NC(=O)[C@H](C)NC(=O)[C@H](C)NC3=O)NC(=O)[C@H](CC(=O)O)NC(=O)[C@H](CC(C)C)NC(=O)[C@H]([C@@H](C)CC)NC2=O)NC1=O` [Example 81] ({Malonyl(2,2-Me2,histaminyl)}-[Ala(1H-tetrazol-5-yl)]GSFEDE[Nle]KEILDKKAAKDFIEWLIKKKITE-NH2; lactam 5-9, 10-14, 15-19, 22-26, 27-31; C-terminus assumed): the Emax at human GLP1 receptor amounted to 56.1%; on human GLP2 receptor it was 91.6%. The EC50 on human GLP1 receptor was 3.16 nM; on human GLP2 receptor it was 0.631 nM.

For the origin of these results see patent US20240270809A1, “ORAL GLP RECEPTOR AGONISTS” (priority 2020, published 2024).
